Our source for the IC50 values is patent publication US11207325B2, “Triazolopyrimidine compounds and uses thereof” (Novartis AG, priority 2014, dated 2021).

The assay relates to H3K27 methylation in G401 cell. The experiment in a line: ELISA (H3K27 methylation) assay. The settings on record: Homo sapiens, G-401; ELISA Qualified assay (H3K27 methylation); read-out: (c) IC50 (μM), ELISA Qualified. The class given is cell-based. An excerpt:
ELISA (H3K27 Methylation) Assay

As usually defined, the IC50 is the midpoint of a concentration-inhibition curve.

Turning to `O=C1CCCN1c1cncc(-c2cnc(NCc3cccc4c3CCO4)n3cnnc23)c1` [Example 87, 1-(5-(5-(((2,3-dihydrobenzofuran-4-yl)methyl)amino)-[1,2,4]triazolo[4,3-c]pyrimidin-8-yl)pyridin-3-yl)pyrrolidin-2-one], the IC50 was 0.707 µM. The value for `CN(C)c1ncc(-c2cnc(NCc3cccc4c3CCO4)n3cnnc23)cn1` [Example 88, N-((2,3-dihydrobenzofuran-4-yl)methyl)-8-(2-(dimethylamino)pyrimidin-5-yl)-[1,2,4]triazolo[4,3-c]pyrimidin-5-amine] was 0.238 µM; that for `CN(C)CCc1cccc(-c2cnc(NCc3cccc4c3CCO4)n3cnnc23)c1` [Example 89, N-((2,3-dihydrobenzofuran-4-yl)methyl)-8-(3-(2-(dimethylamino)ethyl)phenyl)-[1,2,4]triazolo[4,3-c]pyrimidin-5-amine] was 0.101 µM. The value for `CC1(C)COC(c2cncc(-c3cnc(NCc4cccc5c4CCO5)n4cnnc34)c2)=N1` [Example 90, N-((2,3-dihydrobenzofuran-4-yl)methyl)-8-(5-(4,4-dimethyl-4,5-dihydrooxazol-2-yl)pyridin-3-yl)-[1,2,4]triazolo[4,3-c]pyrimidin-5-amine] was 0.675 µM; that for `Fc1ccc2c(c1CNc1ncc(-c3ccc(N4CCSCC4)nc3)c3nncn13)CCO2` [Example 91, N-((5-fluoro-2,3-dihydrobenzofuran-4-yl)methyl)-8-(6-thiomorpholinopyridin-3-yl)-[1,2,4]triazolo[4,3-c]pyrimidin-5-amine] was 0.0225 µM; that for `Fc1ccc2c(c1CNc1ncc(-c3ccc(N4CCOCC4)nc3)c3nncn13)CCO2` [Example 92, N-((5-fluoro-2,3-dihydrobenzofuran-4-yl)methyl)-8-(6-morpholinopyridin-3-yl)-[1,2,4]triazolo[4,3-c]pyrimidin-5-amine] was 0.0409 µM. As for `N#Cc1ccc(-c2cnc(NCc3c(F)ccc4c3CCO4)n3cnnc23)cn1` [Example 93, 5-(5-(((5-fluoro-2,3-dihydrobenzofuran-4-yl)methyl)amino)-[1,2,4]triazolo[4,3-c]pyrimidin-8-yl)picolinonitrile], the IC50 was determined as 0.0241 µM. For the compound `Fc1ccccc1-c1cnc(NCc2c(F)ccc3c2CCO3)n2cnnc12` [Example 94, N-((5-fluoro-2,3-dihydrobenzofuran-4-yl)methyl)-8-(2-fluorophenyl)-[1,2,4]triazolo[4,3-c]pyrimidin-5-amine], the IC50 turned out to be 0.0257 µM. For `CN(C)C(=O)c1ccc(-c2cnc(NCc3cccc4c3CCO4)n3cnnc23)cn1` [Example 95, 5-(5-(((2,3-dihydrobenzofuran-4-yl)methyl)amino)-[1,2,4]triazolo[4,3-c]pyrimidin-8-yl)-N,N-dimethylpicolinamide] the value was 0.158 µM; for `CC1CCCN1c1ccc(-c2cnc(NCc3cccc4c3CCO4)n3cnnc23)cn1` (stereo not shown) [Example 96, N-((2,3-dihydrobenzofuran-4-yl)methyl)-8-(6-(2-methylpyrrolidin-1-yl)pyridin-3-yl)-[1,2,4]triazolo[4,3-c]pyrimidin-5-amine], 0.329 µM. With `COC(=O)N1CCN(c2ccc(-c3cnc(NCc4cccc5c4CCO5)n4cnnc34)cn2)CC1` [Example 97, methyl 4-(5-(5-(((2,3-dihydrobenzofuran-4-yl)methyl)amino)-[1,2,4]triazolo[4,3-c]pyrimidin-8-yl)pyridin-2-yl)piperazine-1-carboxylate], the IC50 is 0.183 µM. As to `CS(=O)(=O)CCCOc1cncc(-c2cnc(NCc3cccc4c3CCO4)n3cnnc23)c1` [Example 98, N-((2,3-dihydrobenzofuran-4-yl)methyl)-8-(5-(3-(methylsulfonyl)propoxy)pyridin-3-yl)-[1,2,4]triazolo[4,3-c]pyrimidin-5-amine], the IC50 came to 1.42 µM. With `CC(C)(O)c1ccc(-c2cnc(NCc3cccc4c3CCO4)n3cnnc23)cn1` [Example 99, 2-(5-(5-(((2,3-dihydrobenzofuran-4-yl)methyl)amino)-[1,2,4]triazolo[4,3-c]pyrimidin-8-yl)pyridin-2-yl)propan-2-ol], the half-inhibitory concentration (IC50) is 0.107 µM. For the compound `FC1(F)CCN(CCc2ccc(-c3cnc(NCc4cccc5c4CCO5)n4cnnc34)cn2)C1` [Example 100, 8-(6-(2-(3,3-difluoropyrrolidin-1-yl)ethyl)pyridin-3-yl)-N-((2,3-dihydrobenzofuran-4-yl)methyl)-[1,2,4]triazolo[4,3-c]pyrimidin-5-amine], the IC50 amounted to 0.181 µM.

For `CC1(C)COC(c2ccc(-c3cnc(NCc4cccc5c4CCO5)n4cnnc34)cn2)=N1` [Example 101, N-((2,3-dihydrobenzofuran-4-yl)methyl)-8-(6-(4,4-dimethyl-4,5-dihydrooxazol-2-yl)pyridin-3-yl)-[1,2,4]triazolo[4,3-c]pyrimidin-5-amine], the IC50 worked out at 0.761 µM. The value for `CN(C)CCN(C)C(=O)c1ccc(-c2cnc(NCc3cccc4c3CCO4)n3cnnc23)cn1` [Example 102, 5-(5-(((2,3-dihydrobenzofuran-4-yl)methyl)amino)-[1,2,4]triazolo[4,3-c]pyrimidin-8-yl)-N-(2-(dimethylamino)ethyl)-N-methylpicolinamide] was 0.285 µM; that for `O=C1CN(c2ccc(-c3cnc(NCc4cccc5c4CCO5)n4cnnc34)cn2)CCN1` [Example 104, 4-(5-(5-(((2,3-dihydrobenzofuran-4-yl)methyl)amino)-[1,2,4]triazolo[4,3-c]pyrimidin-8-yl)pyridin-2-yl)piperazin-2-one] was 2.33 µM. For `Cc1cc(-c2cnc(NCc3cccc4c3CCO4)n3cnnc23)cnc1N1CCNC(=O)C1` [Example 105, 4-(5-(5-(((2,3-dihydrobenzofuran-4-yl)methyl)amino)-[1,2,4]triazolo[4,3-c]pyrimidin-8-yl)-3-methylpyridin-2-yl)piperazin-2-one], the IC50 was found to be 2.42 µM. For `CS(=O)(=O)CCOc1cncc(-c2cnc(NCc3cccc4c3CCO4)n3cnnc23)c1` [Example 106, N-((2,3-dihydrobenzofuran-4-yl)methyl)-8-(5-(2-(methylsulfonyl)ethoxy)pyridin-3-yl)-[1,2,4]triazolo[4,3-c]pyrimidin-5-amine] the value was 2.7 µM; for `O=CN1CCN(CCc2ccc(-c3cnc(NCc4cccc5c4CCO5)n4cnnc34)cn2)CC1` [Example 107, 4-(2-(5-(5-(((2,3-dihydrobenzofuran-4-yl)methyl)amino)-[1,2,4]triazolo[4,3-c]pyrimidin-8-yl)pyridin-2-yl)ethyl)piperazine-1-carbaldehyde], 0.161 µM. Consider `CC(=O)N1CCN(CCc2ccc(-c3cnc(NCc4cccc5c4CCO5)n4cnnc34)cn2)CC1` [Example 108, 1-(4-(2-(5-(5-(((2,3-dihydrobenzofuran-4-yl)methyl)amino)-[1,2,4]triazolo[4,3-c]pyrimidin-8-yl)pyridin-2-yl)ethyl)piperazin-1-yl)ethanone], for which the IC50 came to 0.173 µM.

On to `O=C1CN(CCc2ccc(-c3cnc(NCc4cccc5c4CCO5)n4cnnc34)cn2)CCN1` [Example 109, 4-(2-(5-(5-(((2,3-dihydrobenzofuran-4-yl)methyl)amino)-[1,2,4]triazolo[4,3-c]pyrimidin-8-yl)pyridin-2-yl)ethyl)piperazin-2-one], for which the IC50 was 1.21 µM. As to `OCCN1CCN(c2ccc(-c3cnc(NCc4cccc5c4CCO5)n4cnnc34)cn2)CC1` [Example 110, 2-(4-(5-(5-(((2,3-dihydrobenzofuran-4-yl)methyl)amino)-[1,2,4]triazolo[4,3-c]pyrimidin-8-yl)pyridin-2-yl)piperazin-1-yl)ethanol], the IC50 came to 0.124 µM. As to `CNc1cc(F)c(-c2cnc(NCc3cccc4c3CCO4)n3cnnc23)cn1` [Example 111, N-((2,3-dihydrobenzofuran-4-yl)methyl)-8-(4-fluoro-6-(methylamino)pyridin-3-yl)-[1,2,4]triazolo[4,3-c]pyrimidin-5-amine], the IC50 was 0.14 µM.

Consider `CN(C)c1cc(F)c(-c2cnc(NCc3cccc4c3CCO4)n3cnnc23)cn1` [Example 112, N-((2,3-dihydrobenzofuran-4-yl)methyl)-8-(6-(dimethylamino)-4-fluoropyridin-3-yl)-[1,2,4]triazolo[4,3-c]pyrimidin-5-amine], for which the IC50 was 0.389 µM. The value for `O=CN1CCCN(c2ccc(-c3cnc(NCc4cccc5c4CCO5)n4cnnc34)cn2)CC1` [Example 113, 4-(5-(5-(((2,3-dihydrobenzofuran-4-yl)methyl)amino)-[1,2,4]triazolo[4,3-c]pyrimidin-8-yl)pyridin-2-yl)-1,4-diazepane-1-carbaldehyde] was 0.72 µM; that for `CCNC(=O)c1ccc(-c2cnc(NCc3cccc4c3CCO4)n3cnnc23)cn1` [Example 114, 5-(5-(((2,3-dihydrobenzofuran-4-yl)methyl)amino)-[1,2,4]triazolo[4,3-c]pyrimidin-8-yl)-N-ethylpicolinamide] was 1.98 µM; that for `Fc1ccc2c(c1CNc1ncc(-c3cccnc3F)c3nncn13)CCO2` [Example 115, N-((5-fluoro-2,3-dihydrobenzofuran-4-yl)methyl)-8-(2-fluoropyridin-3-yl)-[1,2,4]triazolo[4,3-c]pyrimidin-5-amine] was 0.0243 µM. In the case of `Cc1cc(-c2cnc(NCc3c(F)ccc4c3CCO4)n3cnnc23)ccn1` [Example 116, N-((5-fluoro-2,3-dihydrobenzofuran-4-yl)methyl)-8-(2-methylpyridin-4-yl)-[1,2,4]triazolo[4,3-c]pyrimidin-5-amine], the IC50 turned out to be 0.0072 µM. `O=C1OCCN1c1ccc(-c2cnc(NCc3cccc4c3CCO4)n3cnnc23)cn1` [Example 117, 3-(5-(5-(((2,3-dihydrobenzofuran-4-yl)methyl)amino)-[1,2,4]triazolo[4,3-c]pyrimidin-8-yl)pyridin-2-yl)oxazolidin-2-one]: the IC50 was 0.48 µM. `Cc1ccncc1-c1cnc(NCc2c(F)ccc3c2CCO3)n2cnnc12` [Example 118, N-((5-fluoro-2,3-dihydrobenzofuran-4-yl)methyl)-8-(4-methylpyridin-3-yl)-[1,2,4]triazolo[4,3-c]pyrimidin-5-amine]: the half-maximal inhibitory concentration (IC50) was determined as 0.0177 µM.
